# Measurements reported in patent US9228999B2, “Method for screening active agents that stimulate the expression of CERT to improve the skin's barrier function” (CHANEL PARFUMS BEAUTE, priority 2009, dated 2016).
# Test system: CERT mRNA
# Experiment: Test for screening active agents by real-time RT-PCR: expression of CERT mRNA in keratinocytes
# Assay type: cell-based
# Conditions: normal human keratinocytes (neonatal foreskin), 24 hours incubation, concentration 0.0005%, number of times of increase vs untreated (1.0), normalized to RPLPO
# Procedure: The effect of two active agents on the expression of the mRNA of CERT was evaluated in keratinocytes. Keratinocytes derived from neonatal foreskins (Cascade Biologics/Invitrogen, Portland, Oreg., USA) are inoculated in 6-well plates and cultured in keratinocyte growth culture medium (Epilife, Invitrogen), i.e. a modified culture medium supplemented with EDGS. After culturing for 24 hours in an incubator at 37° C., the 70%-80% confluent cells are washed with PBS buffer (Invitrogen) and incubated with basic medium (Epilife, Invitrogen) containing the active agent to be tested, for 24 hours and in triplicate, at increasing concentrations. After studying the cytotoxicity of the active agent, its activity is evaluated. To quantify the expression of CERT messenger RNA in a treated sample relative to an untreated sample, first the RNA is isolated using the RNeasy reagent kit (Qiagen, CA, USA) and then quantified using the QuantIt kit (Invitrogen). Reverse transcription is performed using the gene Amp RNA PCR kit (Applied Biosystems) according to the manufacturer's recommendations. The real-time PCR measurement is performed using the iCYCLER IQ machine (Bio-Rad, CA, USA) with Taqman probes. […] The relative quantification of the expression of the target gene is performed using the Pfaffl mathematical model (Pfaffl, MW, Nucleic Acids Res. 29(9), p. […], 2001). […]
row,SMILES,Stimulation of CERT mRNA
1,O=C(O)CCCC[C@@H]1CCSS1 (racemic) [Lipoic acid],2.0
2,Oc1ccc(C=Cc2cc(O)cc(O)c2)cc1 [Resveratrol],2.4
